Reference: patent US10272095B2 (GlaxoSmithKline Intellectual Property Development Limited, priority 2015, dated 2019)
Where a name gives a salt, the structure may show the parent alone.

What follows are molecules tested on NQO1 specific enzyme activity in BEAS-2B cells (assay: BEAS-2B NQO1 MTT assay). Conditions: Homo sapiens, BEAS-2B, 48 h, NQO1 specific enzyme activity induction in BEAS-2B cells, 48 hours; read-out: EC50.
Type: cell-based
Summary of the method: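 BEAS-2B cells exposed to compound 48 h at 37° C, 5% CO2, then lysed. NQO1 activity read kinetically in lysate with MTT cocktail (absorbance 570 nm, 30 min); Cell Titer Glo run on a lysate aliquot. pEC50 from ΔOD/min versus log concentration, 3-parameter fit.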

Row | Compound | EC50
1 | Cc1c(C(c2ccc3c(c2)C(N2CCOc4ccccc4C2)CC3)C(C)(C)C(=O)O)ccc2c1nnn2C (stereo not shown) [Example 38, 3-(3-(2,3-Dihydrobenzo[f][1,4]oxazepin-4(5H)-yl)-2,3-dihydro-1H-inden-5-yl)-3-(1,4-dimethyl-1H-benzo[d][1,2,3]triazol-5-yl)-2,2-dimethylpropanoic Acid, Formic Acid Salt] | 1 to 10 nM
2 | Cc1c(C(CC(=O)O)c2ccc3c(c2)C2C(CCN2C(=O)CC2CCCCC2)C3)ccc2c1nnn2C (stereo not shown) [Example 7, 3-[1-(2-Cyclohexylacetyl)-1H,2H,3H,3aH,4H,8bH-indeno[1,2-b]pyrrol-7-yl]-3-(1,4-dimethyl-1H-1,2,3-benzotriazol-5-yl)propanoic Acid] | 1000 to 10000 nM
3 | CCCCN(C)C(=O)N1CCC2Cc3ccc(C(CC(=O)O)c4ccc5c(nnn5C)c4C)cc3C21 (stereo not shown) [Example 14, 3-{1-[Butyl(methyl)carbamoyl]-1H,2H,3H,3aH,4H,8bH-indeno[1,2-b]pyrrol-7-yl}-3-(1,4-dimethyl-1H-1,2,3-benzotriazol-5-yl)propanoic Acid] | 1000 to 10000 nM
4 | CCn1cc(CCC(CC(=O)O)c2ccc3c(c2)[C@@H]2[C@@H](CC(=O)N2CC2CCCCC2)C3)nn1 (stereo partly drawn) [Example 3, 3-[(3aR,8bS)-1-(cyclohexylmethyl)-2-oxo-1H,2H,3H,3aH,4H,8bH-indeno[1,2-b]pyrrol-7-yl]-5-(1-ethyl-1H-1,2,3-triazol-4-yl)pentanoic Acid] | 1000 to 10000 nM
5 | Cc1c([C@H](c2ccc3c(c2)[C@H](N2Cc4ncccc4OC(C)(C)C2)CC3)C(C)(C)C(=O)O)ccc2c1nnn2C (racemic) [Example 67, rac-(R)-3-(1,4-Dimethyl-1H-benzo[d][1,2,3]triazol-5-yl)-3-(rac-(S)-3-(2,2-dimethyl-2,3-dihydropyrido[2,34][1,4]oxazepin-4(5H)-yl)-2,3-dihydro-1H-inden-5-yl)-2,2-dimethylpropanoic Acid, Trifluoroacetic Acid Salt] | < 1 nM
6 | Cc1cc(C#N)ccc1C(CC(=O)O)c1ccc2c(c1)C(N1Cc3cccnc3OC(C)(C)C1)CC2 (stereo not shown) [Example 59, 3-(4-Cyano-2-methylphenyl)-3-(3-(2,2-dimethyl-2,3-dihydropyrido[3,2-f][1,4]oxazepin-4(5H)-yl)-2,3-dihydro-1H-inden-5-yl)propanoic Acid, Formic Acid Salt] | 100 to 1000 nM
7 | CCC1CCC(CN2C(=O)CC3Cc4ccc(C(CC(=O)O)c5ccc6c(nnn6C)c5C)cc4C32)CC1 (stereo not shown) [Example 2, 3-(1,4-Dimethyl-1H-1,2,3-benzotriazol-5-yl)-3-{1-[(4-ethylcyclohexyl)methyl]-2-oxo-1H,2H,3H,3aH,4H,8bH-indeno[1,2-b]pyrrol-7-yl}propanoic Acid] | 10 to 100 nM
8 | COc1cc(C(CC(=O)O)c2ccc3c(c2)C2C(CCN2C(=O)OC(C)(C)C)C3)c(C)c2nnn(C)c12 (stereo not shown) [Example 18, 3-(1-(tert-Butoxycarbonyl)-1,2,3,3a,4,8b-hexahydroindeno[1,2-b]pyrrol-7-yl)-3-(7-methoxy-1,4-dimethyl-1H-benzo[d][1,2,3]triazol-5-yl)propanoic Acid] | 10 to 100 nM
9 | CC[C@@H]1CN(C2CCc3ccc(C(c4ccc5c(nnn5C)c4C)C(C)(C)C(=O)O)cc32)Cc2ccccc2O1 (stereo partly drawn) [Example 30, 3-(1,4-Dimethyl-1H-benzo[d][1,2,3]triazol-5-yl)-3-(3-((R)-2-ethyl-2,3-dihydrobenzo[f][1,4]oxazepin-4(5H)-yl)-2,3-dihydro-1H-inden-5-yl)-2,2-dimethylpropanoic Acid, Formic Acid Salt] | 1 to 10 nM
10 | Cc1c(C(c2ccc3c(c2)C(N2Cc4cnccc4OC(C)(C)C2)CC3)C(C)(C)C(=O)O)ccc2c1nnn2C (stereo not shown) [Example 33, 3-(1,4-Dimethyl-1H-benzo[d][1,2,3]triazol-5-yl)-3-(3-(2,2-dimethyl-2,3-dihydropyrido[3,4-f][1,4]oxazepin-4(5H)-yl)-2,3-dihydro-1H-inden-5-yl)-2,2-dimethylpropanoic Acid, Trifluoroacetic Acid Salt] | 1 to 10 nM
11 | COc1cc(C(CC(=O)O)c2ccc3c(c2)C(N2Cc4cccnc4OC(C)(C)C2)CC3)cc2nnn(C)c12 (stereo not shown) [Example 55, 3-(3-(2,2-Dimethyl-2,3-dihydropyrido[3,2-f][1,4]oxazepin-4(5H)-yl)-2,3-dihydro-1H-inden-5-yl)-3-(7-methoxy-1-methyl-1H-benzo[d][1,2,3]triazol-5-yl)propanoic Acid, Formic Acid Salt] | 100 to 1000 nM
12 | Cc1c(C(CC(=O)O)c2ccc3c(c2)[C@@H]2[C@@H](CC(=O)N2CC2CCCCC2)C3)ccc2c1nnn2C (stereo partly drawn) [Example 1, 3-[(3aR,8bS)-1-(cyclohexylmethyl)-2-oxo-1H,2H,3H,3aH,4H,8bH-indeno[1,2-b]pyrrol-7-yl]-3-(1,4-dimethyl-1H-1,2,3-benzotriazol-5-yl)propanoic Acid] | 100 to 1000 nM
13 | COc1cc(C(CC(=O)O)c2ccc3c(c2)C2C(CCN2C(=O)OC(C)(C)C)C3)cc2nnn(C)c12 (stereo not shown) [Example 15, 3-{1-[(tert-Butoxy)carbonyl]-1H,2H,3H,3aH,4H,8bH-indeno[1,2-b]pyrrol-7-yl}-3-(7-methoxy-1-methyl-1H-1,2,3-benzotriazol-5-yl)propanoic Acid] | 100 to 1000 nM
